# Assay results reported in US11850246B2, “Method for treatment of cytokine release syndrome” (NOVMETAPHARMA CO., LTD., priority 2020, dated 2023).
# What was measured:
# [1] = test system: macrophage; experiment: Anti-inflammatory effect on LPS-activated macrophage: activation surface markers by flow cytometry; type: cell-based; conditions: 5 μM compound; macrophage activated with 100 ng/mL LPS; 24 hours after LPS treatment; flow cytometry (FIG. 1A-1C)
# Method: Dysregulation of immune activation in innate immune cell is the main factor initiating cytokine release syndrome. Immune regulatory effects of the compound of Chemical Formula 1 on macrophage were assessed employing compound 18a (DMRC200434). 5 μM DMRC200434 was treated on activated macrophage with 100 ng/mL lipopolysaccharide (LPS) (Sigma-Aldrich). 24 hours after LPS treatment, activation markers (CD40, CD80, CD86) were measured by flow cytometry.
# [2] = test system: LPS induced endotoxemia model; experiment: LPS induced endotoxemia model, survival; type: in vivo, C57BL/6 mice; conditions: 30 mg/kg injected 24 hours prior to and at start of LPS (50 mg/kg) injection; survival observed for 50 hours (FIG. 2)
# Method: 6 to 8-week female C57BL/6 mice (Jackson Lab) were used according to an animal protocol approved by the Institutional Animal Care and Use Committee of Kyungpook National University.
# Compound of Chemical Formula 1 (DMRC200434, 30 mg/kg) was dissolved in a solution of 5%—DMSO: 95%—20% PEG400(Saline) and was injected at two points—at 24 hours prior to, and at the start of LPS (50 mg/kg) injection.
# The inventors analyzed the efficacy of a compound of Chemical Formula 1 in vivo on LPS-induced endotoxemia model employing DMRC200434. To assess the effect of DMRC200434 on endotoxemia, DMRC200434 was treated on LPS induced endotoxemia model.
smiles,measurement,setting,value
"CC(C)N1CCN(c2ccc(/C(=C(/CCCO)c3ccccc3)c3ccc(O)cc3)cc2)CC1 [DMRC200434, (E)-5-(4-hydroxyphenyl)-5-(4-(4-isopropylpiperazin-1-yl)phenyl)-4-phenylpent-4-en-1-ol]",expression of inflammatory surface marker CD40,[1],downregulated
same,expression of inflammatory surface marker CD80,[1],downregulated
same,expression of inflammatory surface marker CD86,[1],downregulated
same,endotoxin mediated death (survival),[2],significantly delayed
